In ChEMBL document CHEMBL5528031, “Synthesis and antitumor activity of cyclopentane-fused anthraquinone derivatives” (Eur J Med Chem, 2024):
pIC50: −log10 of the molar value.

test system: CAPAN-1; experiment: Antiproliferative activity against human CAPAN-1 cells assessed as inhibition of cell growth incubated for 72 hrs by MTT assay; format: functional, cell-based; conditions: CAPAN-1, 72 h

Row | Compound | pIC50
1 | O=C1c2ccccc2C(=O)c2c(O)c3c(c(O)c21)CC(C(=O)N1CCC(N2CCCCC2)CC1)C3 | 5.82
2 | NCCNC(=O)C1Cc2c(O)c3c(c(O)c2C1)C(=O)c1ccccc1C3=O | 5.80
3 | O=C1c2ccccc2C(=O)c2c(O)c3c(c(O)c21)CC(C(=O)NC1CCCNC1)C3 (stereo not given) | 6.00
4 | NCCN(CCN)C(=O)C1Cc2c(O)c3c(c(O)c2C1)C(=O)c1ccccc1C3=O | 5.80
5 | O=C1c2ccccc2C(=O)c2c(O)c3c(c(O)c21)CC(C(=O)N[C@@H]1CCNC1)C3 | 5.80

test system: HCT-116; experiment: Antiproliferative activity against human HCT-116 cells assessed as inhibition of cell growth incubated for 72 hrs by MTT assay; format: functional, cell-based; conditions: HCT-116, 72 h

Row | Compound | pIC50
6 | O=C1c2ccccc2C(=O)c2c(O)c3c(c(O)c21)CC(C(=O)N1CCC(N2CCCCC2)CC1)C3 | 5.51
7 | NCCNC(=O)C1Cc2c(O)c3c(c(O)c2C1)C(=O)c1ccccc1C3=O | 5.85
8 | O=C1c2ccccc2C(=O)c2c(O)c3c(c(O)c21)CC(C(=O)NC1CCCNC1)C3 (stereo not given) | 5.49
9 | NCCN(CCN)C(=O)C1Cc2c(O)c3c(c(O)c2C1)C(=O)c1ccccc1C3=O | 5.89
10 | O=C1c2ccccc2C(=O)c2c(O)c3c(c(O)c21)CC(C(=O)N[C@@H]1CCNC1)C3 | 5.80

test system: LN-229; experiment: Antiproliferative activity against human LN-229 cells assessed as inhibition of cell growth incubated for 72 hrs by MTT assay; format: functional, cell-based; conditions: LN-229, 72 h

Row | Compound | pIC50
11 | O=C1c2ccccc2C(=O)c2c(O)c3c(c(O)c21)CC(C(=O)N1CCC(N2CCCCC2)CC1)C3 | 5.55
12 | NCCNC(=O)C1Cc2c(O)c3c(c(O)c2C1)C(=O)c1ccccc1C3=O | 5.59
13 | O=C1c2ccccc2C(=O)c2c(O)c3c(c(O)c21)CC(C(=O)NC1CCCNC1)C3 (stereo not given) | 5.46
14 | NCCN(CCN)C(=O)C1Cc2c(O)c3c(c(O)c2C1)C(=O)c1ccccc1C3=O | 5.80
15 | O=C1c2ccccc2C(=O)c2c(O)c3c(c(O)c21)CC(C(=O)N[C@@H]1CCNC1)C3 | 5.24

test system: NCI-H1975; experiment: Antiproliferative activity against human NCI-H1975 cells assessed as inhibition of cell growth incubated for 72 hrs by MTT assay; format: functional, cell-based; conditions: NCI-H1975, 72 h

Row | Compound | pIC50
16 | O=C1c2ccccc2C(=O)c2c(O)c3c(c(O)c21)CC(C(=O)N1CCC(N2CCCCC2)CC1)C3 | 5.51
17 | NCCNC(=O)C1Cc2c(O)c3c(c(O)c2C1)C(=O)c1ccccc1C3=O | 5.74
18 | O=C1c2ccccc2C(=O)c2c(O)c3c(c(O)c21)CC(C(=O)NC1CCCNC1)C3 (stereo not given) | 5.34
19 | NCCN(CCN)C(=O)C1Cc2c(O)c3c(c(O)c2C1)C(=O)c1ccccc1C3=O | 5.74
20 | O=C1c2ccccc2C(=O)c2c(O)c3c(c(O)c21)CC(C(=O)N[C@@H]1CCNC1)C3 | 5.00

test system: Z-138; experiment: Antiproliferative activity against human Z138 cells assessed as inhibition of cell growth incubated for 72 hrs by MTT assay; format: functional, cell-based; conditions: Z-138, 72 h

Row | Compound | pIC50
21 | O=C1c2ccccc2C(=O)c2c(O)c3c(c(O)c21)CC(C(=O)N1CCC(N2CCCCC2)CC1)C3 | 5.60
22 | NCCNC(=O)C1Cc2c(O)c3c(c(O)c2C1)C(=O)c1ccccc1C3=O | 5.68
23 | O=C1c2ccccc2C(=O)c2c(O)c3c(c(O)c21)CC(C(=O)NC1CCCNC1)C3 (stereo not given) | 5.66
24 | NCCN(CCN)C(=O)C1Cc2c(O)c3c(c(O)c2C1)C(=O)c1ccccc1C3=O | 5.60
25 | O=C1c2ccccc2C(=O)c2c(O)c3c(c(O)c21)CC(C(=O)N[C@@H]1CCNC1)C3 | 5.64

test system: not listed separately; experiment: Antiproliferative activity against human DND41 cells assessed as inhibition of cell growth incubated for 72 hrs by MTT assay; format: functional, cell-based; conditions: DND41, 72 h

Row | Compound | pIC50
26 | O=C1c2ccccc2C(=O)c2c(O)c3c(c(O)c21)CC(C(=O)N1CCC(N2CCCCC2)CC1)C3 | 5.77
27 | NCCNC(=O)C1Cc2c(O)c3c(c(O)c2C1)C(=O)c1ccccc1C3=O | 5.51
28 | O=C1c2ccccc2C(=O)c2c(O)c3c(c(O)c21)CC(C(=O)NC1CCCNC1)C3 (stereo not given) | 5.82
29 | NCCN(CCN)C(=O)C1Cc2c(O)c3c(c(O)c2C1)C(=O)c1ccccc1C3=O | 5.62
30 | O=C1c2ccccc2C(=O)c2c(O)c3c(c(O)c21)CC(C(=O)N[C@@H]1CCNC1)C3 | 5.66

test system: HL-60; experiment: Antiproliferative activity against human HL-60 cells assessed as inhibition of cell growth incubated for 72 hrs by MTT assay; format: functional, cell-based; conditions: HL-60, 72 h

Row | Compound | pIC50
31 | O=C1c2ccccc2C(=O)c2c(O)c3c(c(O)c21)CC(C(=O)N1CCC(N2CCCCC2)CC1)C3 | 5.62
32 | NCCNC(=O)C1Cc2c(O)c3c(c(O)c2C1)C(=O)c1ccccc1C3=O | 5.43
33 | O=C1c2ccccc2C(=O)c2c(O)c3c(c(O)c21)CC(C(=O)NC1CCCNC1)C3 (stereo not given) | 5.72
34 | NCCN(CCN)C(=O)C1Cc2c(O)c3c(c(O)c2C1)C(=O)c1ccccc1C3=O | 5.64
35 | O=C1c2ccccc2C(=O)c2c(O)c3c(c(O)c21)CC(C(=O)N[C@@H]1CCNC1)C3 | 5.64

test system: K562; experiment: Antiproliferative activity against human K562 cells assessed as inhibition of cell growth incubated for 72 hrs by MTT assay; format: functional, cell-based; conditions: K562, 72 h

Row | Compound | pIC50
36 | O=C1c2ccccc2C(=O)c2c(O)c3c(c(O)c21)CC(C(=O)N1CCC(N2CCCCC2)CC1)C3 | 5.70
37 | NCCNC(=O)C1Cc2c(O)c3c(c(O)c2C1)C(=O)c1ccccc1C3=O | 5.68
38 | O=C1c2ccccc2C(=O)c2c(O)c3c(c(O)c21)CC(C(=O)NC1CCCNC1)C3 (stereo not given) | 5.77
39 | NCCN(CCN)C(=O)C1Cc2c(O)c3c(c(O)c2C1)C(=O)c1ccccc1C3=O | 5.72
40 | O=C1c2ccccc2C(=O)c2c(O)c3c(c(O)c21)CC(C(=O)N[C@@H]1CCNC1)C3 | 5.68

test system: not listed separately; experiment: Antiproliferative activity against multidrug resistant human K562/4 cells expressing P-gp assessed as inhibition of cell growth incubated for 72 hrs by MTT assay; format: functional, cell-based; conditions: K562/4, 72 h

Row | Compound | pIC50
41 | O=C1c2ccccc2C(=O)c2c(O)c3c(c(O)c21)CC(C(=O)N1CCC(N2CCCCC2)CC1)C3 | 5.34
42 | NCCNC(=O)C1Cc2c(O)c3c(c(O)c2C1)C(=O)c1ccccc1C3=O | 5.22
43 | O=C1c2ccccc2C(=O)c2c(O)c3c(c(O)c21)CC(C(=O)NC1CCCNC1)C3 (stereo not given) | 5.49
44 | NCCN(CCN)C(=O)C1Cc2c(O)c3c(c(O)c2C1)C(=O)c1ccccc1C3=O | 4.74
45 | O=C1c2ccccc2C(=O)c2c(O)c3c(c(O)c21)CC(C(=O)N[C@@H]1CCNC1)C3 | 5.04

test system: not listed separately; experiment: Cytotoxicity against hFB-hTERT6 cells assessed as inhibition of cell growth incubated for 72 hrs by MTT assay; format: toxicity, cell-based; conditions: human

Row | Compound | IC50 at 72 h [nM]
46 | O=C1c2ccccc2C(=O)c2c(O)c3c(c(O)c21)CC(C(=O)N1CCC(N2CCCCC2)CC1)C3 | 4500
47 | NCCNC(=O)C1Cc2c(O)c3c(c(O)c2C1)C(=O)c1ccccc1C3=O | 4000
48 | O=C1c2ccccc2C(=O)c2c(O)c3c(c(O)c21)CC(C(=O)NC1CCCNC1)C3 (stereo not given) | 4200
49 | NCCN(CCN)C(=O)C1Cc2c(O)c3c(c(O)c2C1)C(=O)c1ccccc1C3=O | 2300
50 | O=C1c2ccccc2C(=O)c2c(O)c3c(c(O)c21)CC(C(=O)N[C@@H]1CCNC1)C3 | 4200
